Assay results from ChEMBL document CHEMBL1201862, “PubChem BioAssay data set” (2004).
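Cells were grown in 96-well plates and exposed to each compound for 48 hours at five concentrations; endpoints were interpolated linearly between bracketing concentrations, or set to the highest concentration if not reached. GI50 = concentration required for 50% inhibition of growth.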 Calls of active or inactive are those of the source. No stated cut-off is given here; in the data, active = GI50 up to about 1.1 µM and inactive = higher.

Columns and labels:
Experiment in all cases: DTP human tumour cell line panel, 48 h
[1] = tested on: HOP-62
[2] = tested on: HOP-92
[3] = tested on: HT-29
[4] = tested on: Hs-578T
[5] = tested on: KM12
[6] = tested on: LOX IMVI
[7] = tested on: MCF7
[8] = tested on: Malme-3M
[9] = tested on: NCI-H226
[10] = tested on: NCI-H460
[11] = tested on: NCI-H522
[12] = tested on: OVCAR-4
[13] = tested on: OVCAR-5
[14] = tested on: PC-3
[15] = tested on: SK-MEL-2
[16] = tested on: SK-OV-3
[17] = tested on: SW-620
[18] = tested on: TK-10
[19] = tested on: UACC-62
[20] = tested on: SR

Q: Which GI50 [1] does the source give for `NC(CCC(=O)O)C(=O)NC(Cc1ccc(N(CCCl)CCCl)cc1)C(=O)O` (stereo unspecified) here?
A: > 100 µM (inactive)

Q: What about the GI50 [2] of the same compound?
A: > 100 µM (inactive)

Q: And the GI50 [3]?
A: > 100 µM (inactive)

Q: And the GI50 [4]?
A: > 100 µM (inactive)

Q: What about the GI50 [5] of the same compound?
A: > 100 µM (inactive)

Q: What about the GI50 [6] of the same compound?
A: > 100 µM (inactive)

Q: What about the GI50 [7] of the same compound?
A: > 100 µM (inactive)

Q: And the GI50 [8]?
A: > 100 µM (inactive)

Q: And the GI50 [9]?
A: > 100 µM (inactive)

Q: What about the GI50 [10] of the same compound?
A: > 100 µM (inactive)

Q: What about the GI50 [11] of the same compound?
A: > 100 µM (inactive)

Q: What about the GI50 [12] of the same compound?
A: > 100 µM (inactive)

Q: What about the GI50 [13] of the same compound?
A: > 100 µM (inactive)

Q: What about the GI50 [14] of the same compound?
A: > 100 µM (inactive)

Q: What about the GI50 [15] of the same compound?
A: > 100 µM (inactive)

Q: What about the GI50 [16] of the same compound?
A: > 100 µM (inactive)

Q: And the GI50 [17]?
A: > 100 µM (inactive)

Q: And the GI50 [18]?
A: > 100 µM (inactive)

Q: And the GI50 [19]?
A: > 100 µM (inactive)

Q: Which results are given for `CC(C)(C)CC(C)(C)c1cc(O)c(O)c(CN2CCCCC2)c1`?
A: GI50 [1]: 15.5 µM (inactive); GI50 [2]: 17.5 µM (inactive); GI50 [3]: 5.69 µM (inactive); GI50 [4]: 15.6 µM (inactive); GI50 [5]: 17.5 µM (inactive); GI50 [6]: 12 µM (inactive); GI50 [7]: 12.5 µM (inactive); GI50 [8]: 12.8 µM (inactive); GI50 [9]: 16.7 µM (inactive); GI50 [10]: 11.7 µM (inactive); GI50 [11]: 10.8 µM (inactive); GI50 [12]: 19.2 µM (inactive); GI50 [13]: 17.4 µM (inactive); GI50 [14]: 13.9 µM (inactive); GI50 [16]: 19.8 µM (inactive); GI50 [17]: 13.2 µM (inactive); GI50 [18]: 16.1 µM (inactive); GI50 [19]: 16.3 µM (inactive)

Q: Which GI50 [1] does the source give for `Cc1ccnc(NC(=S)Nc2ccccc2Cl)c1` here?
A: 34.7 µM (inactive)

Q: And the GI50 [3]?
A: > 100 µM (inactive)

Q: What about the GI50 [4] of the same compound?
A: 44.7 µM (inactive)

Q: And the GI50 [5]?
A: > 100 µM (inactive)

Q: What about the GI50 [6] of the same compound?
A: > 100 µM (inactive)

Q: And the GI50 [7]?
A: > 100 µM (inactive)

Q: And the GI50 [8]?
A: 53.5 µM (inactive)

Q: And the GI50 [9]?
A: 63.5 µM (inactive)

Q: And the GI50 [10]?
A: > 100 µM (inactive)

Q: And the GI50 [11]?
A: 0.131 µM (active)

Q: And the GI50 [12]?
A: > 100 µM (inactive)

Q: And the GI50 [13]?
A: > 100 µM (inactive)

Q: What about the GI50 [14] of the same compound?
A: > 100 µM (inactive)

Q: What about the GI50 [15] of the same compound?
A: > 100 µM (inactive)

Q: And the GI50 [16]?
A: 83.8 µM (inactive)

Q: What about the GI50 [20] of the same compound?
A: > 100 µM (inactive)

Q: And the GI50 [17]?
A: > 100 µM (inactive)

Q: And the GI50 [18]?
A: > 100 µM (inactive)

Q: What about the GI50 [19] of the same compound?
A: 63.1 µM (inactive)

Q: How did the GI50 [1] turn out when `CCCC1NC(=O)C(CC(C)C)NC(=O)c2cccc(n2)C(=O)NC(CC(C)C)C(=O)NC(CCC)C(=O)NC(C(=O)OC)CCCCNC1=O` (stereo unspecified) was run?
A: 81.3 µM (inactive)

Q: What about the GI50 [2] of the same compound?
A: 14.6 µM (inactive)

Q: What about the GI50 [3] of the same compound?
A: 30.6 µM (inactive)

Q: And the GI50 [4]?
A: 71.1 µM (inactive)

Q: And the GI50 [5]?
A: 27.3 µM (inactive)

Q: What about the GI50 [6] of the same compound?
A: 19.2 µM (inactive)

Q: And the GI50 [7]?
A: 25.9 µM (inactive)

Q: And the GI50 [8]?
A: 21.7 µM (inactive)

Q: What about the GI50 [9] of the same compound?
A: 25.6 µM (inactive)

Q: What about the GI50 [10] of the same compound?
A: > 100 µM (inactive)

Q: What about the GI50 [12] of the same compound?
A: 38.8 µM (inactive)

Q: And the GI50 [13]?
A: > 100 µM (inactive)

Q: And the GI50 [14]?
A: 25.3 µM (inactive)

Q: What about the GI50 [15] of the same compound?
A: 55 µM (inactive)

Q: And the GI50 [16]?
A: 27.2 µM (inactive)

Q: What about the GI50 [20] of the same compound?
A: 29 µM (inactive)

Q: What about the GI50 [17] of the same compound?
A: 34.8 µM (inactive)

Q: And the GI50 [18]?
A: 57.8 µM (inactive)

Q: What about the GI50 [19] of the same compound?
A: 21.2 µM (inactive)

Q: Which results are given for `CC(C)OCC1CC(CC(=O)Nc2nncs2)C(=O)O1` (stereo unspecified)?
A: GI50 [1]: > 100 µM (inactive); GI50 [2]: > 100 µM (inactive); GI50 [3]: > 100 µM (inactive); GI50 [4]: > 100 µM (inactive); GI50 [5]: > 100 µM (inactive); GI50 [6]: > 100 µM (inactive); GI50 [7]: > 100 µM (inactive); GI50 [9]: > 100 µM (inactive); GI50 [10]: > 100 µM (inactive); GI50 [12]: > 100 µM (inactive); GI50 [13]: > 100 µM (inactive); GI50 [14]: > 100 µM (inactive); GI50 [15]: > 100 µM (inactive); GI50 [16]: > 100 µM (inactive); GI50 [20]: > 100 µM (inactive); GI50 [17]: > 100 µM (inactive); GI50 [18]: > 100 µM (inactive); GI50 [19]: > 100 µM (inactive)

Q: What does the source list for `N=S(c1ccccc1[N+](=O)[O-])c1ccccc1[N+](=O)[O-]`?
A: GI50 [1]: 4.65 µM (inactive); GI50 [2]: 1.89 µM (inactive); GI50 [4]: 4.68 µM (inactive); GI50 [5]: 3.34 µM (inactive); GI50 [6]: 0.76 µM (active); GI50 [7]: 0.129 µM (active); GI50 [8]: 2.72 µM (inactive); GI50 [9]: 4.79 µM (inactive); GI50 [11]: 0.494 µM (active); GI50 [12]: 0.914 µM (active); GI50 [13]: 4.13 µM (inactive); GI50 [14]: 1.46 µM (inactive); GI50 [15]: 3.9 µM (inactive); GI50 [16]: 8.63 µM (inactive); GI50 [18]: 3.84 µM (inactive); GI50 [19]: 3.45 µM (inactive)

Q: What does the source list for `CN1CCCN(C)CCCN(C)CCCN(C)CCC1`?
A: GI50 [1]: > 100 µM (inactive); GI50 [3]: > 100 µM (inactive); GI50 [4]: > 100 µM (inactive); GI50 [5]: > 100 µM (inactive); GI50 [7]: > 100 µM (inactive); GI50 [8]: > 100 µM (inactive); GI50 [9]: > 100 µM (inactive); GI50 [11]: > 100 µM (inactive); GI50 [12]: > 100 µM (inactive); GI50 [13]: > 100 µM (inactive); GI50 [14]: > 100 µM (inactive); GI50 [15]: > 100 µM (inactive); GI50 [16]: > 100 µM (inactive); GI50 [20]: > 100 µM (inactive); GI50 [17]: > 100 µM (inactive); GI50 [18]: > 100 µM (inactive); GI50 [19]: > 100 µM (inactive)
